Active and inactive are the calls of the source. The rule behind the calls is not given here.
Tested on: CCRIS mutagenicity, Ames/micronucleus/aberration tests
Experiment: CCRIS mutagenicity studies
[1] = Test System: AMES SALMONELLA TYPHIMURIUM, Strain/Indicator: TA98, Metabolic Activation: NONE, Method: PREINCUBATION
[2] = Test System: AMES SALMONELLA TYPHIMURIUM, Strain/Indicator: TA100, Metabolic Activation: NONE, Method: PREINCUBATION

O=Cc1c(O)cc2c(c1O)C(=O)c1ccccc1C2=O was tested, and the mutagenic call [1] was “inactive; negative”, the mutagenic call (Test System: AMES SALMONELLA TYPHIMURIUM, Strain/Indicator: TA98, Metabolic Activation: RAT, LIVER, S-9, PCB, Method: PREINCUBATION) was “inactive; negative” and the mutagenic call [2] was “inactive; negative”. The mutagenic call (Test System: AMES SALMONELLA TYPHIMURIUM, Strain/Indicator: TA100, Metabolic Activation: RAT, LIVER, S-9, PCB, Method: PREINCUBATION) was “inactive; negative”.

For O=[N+]([O-])c1ccc2c(c1)CCc1c-2ccc2c1CCCC2, the mutagenic call (Test System: AMES SALMONELLA TYPHIMURIUM, Strain/Indicator: TA98(1,8-DNP6), Metabolic Activation: NONE) was “active; positive”, the mutagenic call (Test System: AMES SALMONELLA TYPHIMURIUM, Strain/Indicator: TA98(1,8-DNP6), Metabolic Activation: RAT, LIVER, S-9, AROCLOR 1254) was “active; positive” and the mutagenic call (Test System: AMES SALMONELLA TYPHIMURIUM, Strain/Indicator: TA98(NR), Metabolic Activation: NONE) was “active; positive”. For the same molecule, the mutagenic call (Test System: AMES SALMONELLA TYPHIMURIUM, Strain/Indicator: TA98(NR), Metabolic Activation: RAT, LIVER, S-9, AROCLOR 1254) was “active; positive”, the mutagenic call (Test System: AMES SALMONELLA TYPHIMURIUM, Strain/Indicator: TA98, Metabolic Activation: NONE) was “active; positive” and the mutagenic call (Test System: AMES SALMONELLA TYPHIMURIUM, Strain/Indicator: TA98, Metabolic Activation: RAT, LIVER, S-9, AROCLOR 1254) was “active; positive”. The mutagenic call (Test System: AMES SALMONELLA TYPHIMURIUM, Strain/Indicator: TA100(NR), Metabolic Activation: NONE) was “inactive; negative”, the mutagenic call (Test System: AMES SALMONELLA TYPHIMURIUM, Strain/Indicator: TA100(NR), Metabolic Activation: RAT, LIVER, S-9, AROCLOR 1254) was “active; positive” and the mutagenic call (Test System: AMES SALMONELLA TYPHIMURIUM, Strain/Indicator: TA100, Metabolic Activation: NONE) was “active; positive”. For the same molecule, the mutagenic call (Test System: AMES SALMONELLA TYPHIMURIUM, Strain/Indicator: TA100, Metabolic Activation: RAT, LIVER, S-9, AROCLOR 1254) was “active; positive”, the mutagenic call (Test System: AMES SALMONELLA TYPHIMURIUM, Strain/Indicator: TA104, Metabolic Activation: NONE) was “active; positive” and the mutagenic call (Test System: AMES SALMONELLA TYPHIMURIUM, Strain/Indicator: TA104, Metabolic Activation: RAT, LIVER, S-9, AROCLOR 1254) was “active; positive”.

O=C(O)CC[C@H](NC(=O)COc1cc(Cl)c(Cl)cc1Cl)C(=O)O was tested, and the mutagenic call (Test System: AMES SALMONELLA TYPHIMURIUM, Strain/Indicator: TA97, Metabolic Activation: NONE, Method: STANDARD PLATE) was “inactive; negative”, the mutagenic call (Test System: AMES SALMONELLA TYPHIMURIUM, Strain/Indicator: TA97, Metabolic Activation: RAT, LIVER, S-9, AROCLOR 1254, Method: STANDARD PLATE) was “inactive; negative” and the mutagenic call (Test System: AMES SALMONELLA TYPHIMURIUM, Strain/Indicator: TA98, Metabolic Activation: NONE, Method: STANDARD PLATE) was “inactive; negative”. The mutagenic call (Test System: AMES SALMONELLA TYPHIMURIUM, Strain/Indicator: TA98, Metabolic Activation: RAT, LIVER, S-9, AROCLOR 1254, Method: STANDARD PLATE) was “inactive; negative”, the mutagenic call (Test System: AMES SALMONELLA TYPHIMURIUM, Strain/Indicator: TA100, Metabolic Activation: NONE, Method: STANDARD PLATE) was “inactive; negative” and the mutagenic call (Test System: AMES SALMONELLA TYPHIMURIUM, Strain/Indicator: TA100, Metabolic Activation: RAT, LIVER, S-9, AROCLOR 1254, Method: STANDARD PLATE) was “inactive; negative”. For the same molecule, the mutagenic call (Test System: AMES SALMONELLA TYPHIMURIUM, Strain/Indicator: TA1535, Metabolic Activation: NONE, Method: STANDARD PLATE) was “inactive; negative”, the mutagenic call (Test System: AMES SALMONELLA TYPHIMURIUM, Strain/Indicator: TA1535, Metabolic Activation: RAT, LIVER, S-9, AROCLOR 1254, Method: STANDARD PLATE) was “inactive; negative” and the mutagenic call (Test System: AMES SALMONELLA TYPHIMURIUM, Strain/Indicator: TA1538, Metabolic Activation: NONE, Method: STANDARD PLATE) was “inactive; negative”. For the same molecule, the mutagenic call (Test System: AMES SALMONELLA TYPHIMURIUM, Strain/Indicator: TA1538, Metabolic Activation: RAT, LIVER, S-9, AROCLOR 1254, Method: STANDARD PLATE) was “inactive; negative”.

With N#Cc1ccccc1C#N the mutagenic call [1] was “inactive; negative”, the mutagenic call (Test System: AMES SALMONELLA TYPHIMURIUM, Strain/Indicator: TA98, Metabolic Activation: RAT LIVER S-9, PHENOBARBITAL AND BETA-NAPHTHOFLAVONE, Method: PREINCUBATION) was “inactive; negative” and the mutagenic call [2] was “inactive; negative”. The mutagenic call (Test System: AMES SALMONELLA TYPHIMURIUM, Strain/Indicator: TA100, Metabolic Activation: RAT LIVER S-9, PHENOBARBITAL AND BETA-NAPHTHOFLAVONE, Method: PREINCUBATION) was “inactive; negative”, the mutagenic call (Test System: AMES SALMONELLA TYPHIMURIUM, Strain/Indicator: TA1535, Metabolic Activation: NONE, Method: PREINCUBATION) was “inactive; negative” and the mutagenic call (Test System: AMES SALMONELLA TYPHIMURIUM, Strain/Indicator: TA1535, Metabolic Activation: RAT LIVER S-9, PHENOBARBITAL AND BETA-NAPHTHOFLAVONE, Method: PREINCUBATION) was “inactive; negative”. The mutagenic call (Test System: AMES SALMONELLA TYPHIMURIUM, Strain/Indicator: TA1537, Metabolic Activation: NONE, Method: PREINCUBATION) was “inactive; negative”, the mutagenic call (Test System: AMES SALMONELLA TYPHIMURIUM, Strain/Indicator: TA1537, Metabolic Activation: RAT LIVER S-9, PHENOBARBITAL AND BETA-NAPHTHOFLAVONE, Method: PREINCUBATION) was “inactive; negative” and the mutagenic call (Test System: AMES SALMONELLA TYPHIMURIUM, Strain/Indicator: TA1538, Metabolic Activation: NONE, Method: PREINCUBATION) was “inactive; negative”. For the same molecule, the mutagenic call (Test System: AMES SALMONELLA TYPHIMURIUM, Strain/Indicator: TA1538, Metabolic Activation: RAT LIVER S-9, PHENOBARBITAL AND BETA-NAPHTHOFLAVONE, Method: PREINCUBATION) was “inactive; negative”, the mutagenic call (Test System: E.COLI, Strain/Indicator: WP2UVRA, Metabolic Activation: NONE, Method: PREINCUBATION) was “inactive; negative” and the mutagenic call (Test System: E.COLI, Strain/Indicator: WP2UVRA, Metabolic Activation: RAT LIVER S-9, PHENOBARBITAL AND BETA-NAPHTHOFLAVONE, Method: PREINCUBATION) was “inactive; negative”.

From PubChem BioAssay AID1259407 (Chemical Carcinogenesis Research Information System (CCRIS), 2018)
